From the supplement of paper PMC10307832

How the values were obtained:
Experiment in all cases: relative viability (nuclei count vs DMSO), 5 days (fraction); higher = more cells survive
[1] = compound: CN(C/C=C/C1=CC=C(C=C1)Cl)CC2=CC=CC=C2N(CCO)S(=O)(=O)C3=CC=C(C=C3)OC [KN-93] + Nc1nc2[nH]cc(CCc3ccc(C(=O)N[C@@H](CCC(=O)O)C(=O)O)cc3)c2c(=O)[nH]1 [Pemetrexed] (partner 0.2 µM)
How it was run: (§1)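 Relative viability divides the nuclei count in treated wells by that in vehicle wells. Lung cancer cell lines were seeded in 1536-well plates, dosed by pin tool the next day, and fixed and stained after 5 days in one step with final 0.05% Triton X-100, 1% formaldehyde and 1 ug/ml Hoechst. Dosing was a single drug or a fixed anchor-drug dose plus five library-drug doses (not always all listed) in √10 steps, and values are medians of duplicate plates imaged at 4×.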

[2] = compound: CN(C/C=C/C1=CC=C(C=C1)Cl)CC2=CC=CC=C2N(CCO)S(=O)(=O)C3=CC=C(C=C3)OC [KN-93] + O=C(c1cc(Cc2n[nH]c(=O)c3ccccc23)ccc1F)N1CCN(C(=O)C2CC2)CC1 [Olaparib] (partner 8 µM)
How it was run: as §1

[3] = compound: CN(C/C=C/C1=CC=C(C=C1)Cl)CC2=CC=CC=C2N(CCO)S(=O)(=O)C3=CC=C(C=C3)OC [KN-93] + N=C(N)NC(=N)NCCc1ccccc1 [Phenformin] (partner 250 µM)
How it was run: as §1

[4] = compound: CN(C/C=C/C1=CC=C(C=C1)Cl)CC2=CC=CC=C2N(CCO)S(=O)(=O)C3=CC=C(C=C3)OC [KN-93] + CC(=O)c1c(C)c2cnc(Nc3ccc(N4CCNCC4)cn3)nc2n(C2CCCC2)c1=O [Palbociclib] (partner 0.5 µM)
How it was run: as §1

[5] = compound: CN(C/C=C/C1=CC=C(C=C1)Cl)CC2=CC=CC=C2N(CCO)S(=O)(=O)C3=CC=C(C=C3)OC [KN-93] + CS(=O)(=O)CCNCc1ccc(-c2ccc3ncnc(Nc4ccc(OCc5cccc(F)c5)c(Cl)c4)c3c2)o1 [Lapatinib] (partner 2 µM)
How it was run: as §1

Cell Line	relative viability ([1]; first compound 0.08 µM)	relative viability ([1]; first compound 0.253 µM)	relative viability ([1]; first compound 2.53 µM)	relative viability ([1]; first compound 8 µM)	relative viability ([2]; first compound 0.08 µM)	relative viability ([2]; first compound 0.253 µM)	relative viability ([2]; first compound 2.53 µM)	relative viability ([2]; first compound 8 µM)	relative viability ([3]; first compound 0.08 µM)	relative viability ([3]; first compound 0.253 µM)	relative viability ([3]; first compound 2.53 µM)	relative viability ([3]; first compound 8 µM)	relative viability ([4]; first compound 0.08 µM)	relative viability ([4]; first compound 0.253 µM)	relative viability ([4]; first compound 2.53 µM)	relative viability ([4]; first compound 8 µM)	relative viability ([5]; first compound 0.08 µM)	relative viability ([5]; first compound 0.253 µM)	relative viability ([5]; first compound 2.53 µM)	relative viability ([5]; first compound 8 µM)
NCI-H2087	0.694	0.672	0.564	0.607	0.453	0.606	0.653	0.383	0.427	0.648	0.57	0.442	0.228	0.218	0.208	0.175	1.06	1.22	1.02	0.286
NCI-H2126	0.541	0.64	0.69	0.654	0.819	1.08	0.931	0.772	0.524	0.483	0.502	0.481	0.341	0.333	0.362	0.354	0.806	0.659	0.804	0.702
NCI-H2170	0.268	0.302	0.276	0.252	0.531	0.679	0.679	0.419	0.434	0.419	0.392	0.402	0.35	0.48	0.403	0.338	0.271	0.257	0.274	0.249
NCI-H2228	0.407	0.383	0.353	0.252	0.617	0.611	0.8	0.269	0.229	0.347	0.412	0.325	0.723	0.97	1.09	0.165	1.15	1.17	1.04	0.728
NCI-H2347	0.376	0.473	0.45	0.549	0.491	0.59	0.606	0.497	0.517	0.376	0.55	0.362	0.378	0.44	0.434	0.407	0.932	0.921	1.17	0.595
NCI-H2405	1.06	1.24	1.02	0.775	0.937	0.798	0.916	0.693	0.379	0.479	0.718	0.354	0.561	0.594	0.547	0.471	1.17	1.09	1.06	0.659
NCI-H3122	0.199	0.194	0.19	0.341	0.491	0.571	0.763	0.53	0.384	0.381	0.901	0.326	0.127	0.181	0.229	0.184	1.09	1.01	1.12	0.978
PC-3 [JPC-3]	1.15	1.37	0.898	0.858	0.929	1.06	1.23	0.956	0.437	0.46	0.494	0.441	0.49	0.476	0.591	0.569	0.462	0.382	0.439	0.428
PC-14	0.154	0.126	0.139	0.131	0.252	0.195	0.252	0.218	0.593	0.685	0.596	0.547	0.483	0.607	0.751	0.35	0.305	0.227	0.318	0.307
RERF-LC-KJ	0.504	0.485	0.46	0.461	0.938	0.97	0.836	0.545	0.365	0.409	0.462	0.307	1.03	1	1.16	0.8	0.803	0.81	1.01	0.776
SK-LU-1	0.967	1.19	1.16	0.688	0.412	0.471	0.463	0.276	0.494	0.811	0.475	0.391	0.439	0.451	0.41	0.314	0.644	1.15	0.972	0.56
SK-MES-1	1.03	0.945	1.05	0.806	0.648	0.665	0.935	0.333	0.554	0.751	0.699	0.571	0.367	0.301	0.354	0.284	0.464	0.425	0.514	0.425
SW 1573	1.07	0.916	0.981	0.307	0.456	0.589	0.523	0.22	0.319	0.389	0.454	0.275	0.395	0.47	0.429	0.15	1.31	1.11	1.14	0.919
UMC-11	0.697	1.01	1.05	0.467	0.43	0.402	0.327	0.214	0.381	0.365	0.355	0.277	0.35	0.306	0.35	0.322	0.839	1.12	1.32	0.626
